Measured values from patent US8686144B2, “Condensed pyridine derivatives useful as potent inhibitors of the protein kinase CK2” (Commissariat a l'Energie Atomique et aux Energie Alternative, priority 2009, dated 2014).

Assays:
U373 cells [1] = experiment: colony formation assay by soft agar culture; type: cell-based; details: Homo sapiens, U373 MG, 360 h, 15 days
Experimental: The effect of compound on tumor cell tumorigenesis is tested on a colony formation assay.
The inhibition of colony formation assay by soft agar culture is performed as follows: U373 cells were poured on a 0.6% agar-DMEM-10% FBS layer, imbedded in 0.3% agar-DMEM-10% FBS, containing compounds (5 μM) or equivalent amount of DMSO. Number of colonies (more than 20 cells) was counted 15 days later in 10 fields/well. Experiment was done in duplicate at least twice.

U373 cells [2] = experiment: in vivo inhibition of tumour growth, U373 xenograft in athymic nude mice
Experimental: All experimental procedures adhered to local ethical committee (Comité régional d'éthique pour l'Expérimentation animale CREEA, Rhône Alpes—protocol n°286). Female Harlan athymic nude mice (6-8 weeks) were inoculated s.c. into the right flank with 7.5×10^5 U373 cells. When tumors reaches±50 mm^3 (volume=length×width×height), animals were treated i.p. 3 times weekly (every two days) for 2 weeks, with Compound 1 (0.14 mg/100 μL/injection-4 mice) dissolved in PEG3350 22.5%, BSA 0.45% or equivalent DMSO (10% final-3 mice) dissolved in same buffer (control group). Body weight and tumor volume were determined twice weekly. The experiment was terminated when tumor volume was about 1000 mm^3. Results are presented as mean±standard error of the mean (SEM).

U373 cells [3] = experiment: inhibition of U373 cell proliferation (CellTiter-Glo viability); type: cell-based, human; details: 5 μM, 48 hours treatment, FIG. 4
Experimental: (§1) 1. […] The following day, the culture medium was replaced with fresh medium (Dulbecco's medium, Invitrogen Life Technologies, Inc., supplemented with 10% (v/v) fetal calf serum (FBS, BioWest)), containing increasing concentration of inhibitors or an equivalent amount of DMSO as control. Two days later, cell viability was measured with the CellTiter-Glo® Luminescent Cell Viability Assay (Promega) according to the manufacturer recommendations. • The inhibition of U373 cells proliferation is assessed with the same protocol that HeLa cells: one day after plating, U373 cells are treated with 5 μM of Compound 1, Compound 2 or DMSO. Results are given relative to the luminescence recorded for DMSO.

[4] = tested on: double stranded oligonucleotide CAATCGGATCGAATTCGATCCGATTG; experiment: DNA intercalation by FID (Fluorescence Intercalator Displacement, thiazole orange); type: binding; details: 10 μM compound
Experimental: (§2) 1. Materials and Methods • Effect of compounds of formula (I) on CK2 activity is measured according to Prudent et al. (Prudent, R. et al. (2008) Mol Cell Biochem 316(1-2): 71-85): compounds were tested in a radioactive assay performed in a final volume of 18 μL containing 3 μL of compounds at the indicated concentrations, 3 μL, of CK2α (36 ng) and a mixture containing 100 μM of peptide substrate ([…], SEQ ID No: 1), 10 mM MgCl2, and 100 μM [γ-^32P]-ATP. Assays were performed at room temperature for 5 min before termination by the addition of 60 μL of 4% TCA. ^32P incorporation into the peptide substrate was determined as previously described in Filhol et al. (Biochemistry 29: 9928-36, 1990). • Effect of compounds of formula (I) on c-kit activity is measured according to the manufacturer's recommendations (Millipore, reference 14-559): in a final reaction volume of 25 μL, c-Kit (5-10 mU) is incubated with 8 mM MOPS pH 7.0, 0.2 mM EDTA, 10 mM MnCl2, 25 μM ATP, 0.1 mg/mL poly(Glu, Tyr) 4:1, 10 mM MgAcetate and [γ-33P-ATP] […] Following an incubation of 30 minutes at 37° C., reaction mixture is resolved on an agarose gel (1% agarose) and DNA topoisomers are quantified by densitometric analysis. • Effect of compounds of formula (I) on DNA intercalation. DNA intercalation was performed using FID (Fluorescence Intercalator Displacement). […] In this assay, compound auto-fluorescence was negative.

HeLa cells [5] = experiment: cell cycle distribution analysis (propidium iodide), HeLa; type: cell-based, human; details: 5 μM, 24 hours
Experimental: (§3) Cells previously treated with Compound 1 and Compound 2 in example 4 are then submitted to a cell cycle analysis following propidium iodide incorportation.
(§4) Cell cycle distribution analysis: cells were plated in 6-well plates. The following day, cells were treated with 5 μM compounds or an equivalent amount of DMSO. After 24 hours, cells were harvested, fixed with ethanol 70% for 30 minutes, and labeled with propidium iodide 10 μg/mL for 30 min. DNA content was analysed with FACScalibur and Cell Quest software.

CK2 = experiment: cellular CK2 activity assay (YFP-based CK2 activity reporter in HeLa cells); type: cell-based, human; details: 24 hours incubation, FIGS. 2A and 2B
Experimental: Cellular CK2 activity assay: The plasmid pEYFPc1 expressing a chimeric YFP-based CK2 activity reporter was designed by adding six CK2 consensus phosphorylation sites at the C terminus of the YFP protein (pEYFPc1-SβS). pEYFPc1-SβS was obtained from pEYFPc1-CK2β after two subsequent rounds of mutations with the Quickchange-Site Directed mutagenesis kit (Stratagene) using for mutagenesis 1:
Then, the cells were collected and the washed pellets were solubilized for […] in ice with 100μΛ of lysis buffer (Tris 50 mM pH=7.4, 0.15 M NaCl, EDTA 2 mM, Triton X100 1/100, phosphatase inhibitor cocktail 2 (Sigma) 1/100, and leupeptine, aprotinine, AEBSF according to the manufacturer recommendations).

CK2α = CK2α (Homo sapiens, UniProt P68400); experiment: CK2 radioactive kinase assay (32P incorporation into peptide substrate); type: biochemical; details: 100 μM ATP; for % remaining CK2 activity (10 μM): 10 μM compound
Experimental: 1. Materials and Methods • Effect of compounds of formula (I) on CK2 activity is measured according to Prudent et al. (Prudent, R. et al. (2008) Mol Cell Biochem 316(1-2): 71-85): compounds were tested in a radioactive assay performed in a final volume of 18 μL containing 3 μL of compounds at the indicated concentrations, 3 μL, of CK2α (36 ng) and a mixture containing 100 μM of peptide substrate ([…], SEQ ID No: 1), 10 mM MgCl2, and 100 μM [γ-^32P]-ATP. Assays were performed at room temperature for 5 min before termination by the addition of 60 μL of 4% TCA. ^32P incorporation into the peptide substrate was determined as previously described in Filhol et al. (Biochemistry 29: 9928-36, 1990). • Effect of compounds of formula (I) on c-kit activity is measured according to the manufacturer's recommendations (Millipore, reference 14-559): in a final reaction volume of 25 μL, c-Kit (5-10 mU) is incubated with 8 mM MOPS pH 7.0, 0.2 mM EDTA, 10 mM MnCl2, 25 μM ATP, 0.1 mg/mL poly(Glu, Tyr) 4:1, 10 mM MgAcetate and [γ-33P-ATP] (specific activity approx. 500 cpm/pmol, concentration as required). The reaction is initiated by the addition of the MgATP mix. After incubation for 40 minutes at room temperature, the reaction is stopped by the addition of 5 μL of a 3% phosphoric acid solution. 10 μL of the reaction is then spotted onto a Filtermat A and washed three times for 5 minutes in 75 mM phosphoric acid and once in methanol prior to drying and scintillation counting. • Effect of compounds of formula (I) on topoisomerase II activity is measured according to the manufacturer's recommendations (Vaxron, TA-001): in a final reaction volume of 10 μL, 1U topoisomerase IIα is incubated with 0.1M Tris-HCl, pH 8.0, 2 mM DTT, 20 mM MgCl2, 4 mM ATP, 0.2 M NaCl, 2 μg BSA, 500 ng Kinetoplast DNA and compounds to be assayed (from 10 mM stock solution in DMSO, final concentration of DMSO<1%). The reaction is initiated by the addition of topoisomerase IIα. After incubation for 15 min at 37° C., reaction is stopped by addition of 1 μL of stop solution (3% SDS, 1.5 mg·mL^−1 Proteinase K). Following an incubation of 30 minutes at 37° C., reaction mixture is resolved on an agarose gel (1% agarose) and DNA topoisomers are quantified by densitometric analysis. • Effect of compounds of formula (I) on DNA intercalation. DNA intercalation was performed using FID (Fluorescence Intercalator Displacement). This assay based on the loss of fluorescence of a DNA-bound intercalator (thiazole orange) upon displacement by a DNA-binding molecule. Briefly, the double stranded oligonucleotide […] […] After 20 minutes incubation, fluorescence is measured (excitation: 490 nm, emission: 520 nm). In this assay, compound auto-fluorescence was negative.

U373 cells [6] = experiment: cell cycle distribution analysis (propidium iodide), U373; type: cell-based, human; details: 5 μM, 24 hours
Experimental: as §3, §4

topoisomerase IIα = biological target: T1, topoisomerase IIα (Homo sapiens, UniProt P11388); experiment: topoisomerase II activity assay (kinetoplast DNA, Vaxron TA-001); type: biochemical; details: 10 μM compound
T1 construct: purchased Vaxron TA-001
Experimental: as §2

HeLa cells [7] = experiment: inhibition of HeLa cell proliferation (CellTiter-Glo viability); type: cell-based, human; details: 48 hours treatment, FIG. 3
Experimental: as §1

c-Kit = biological target: T2, c-Kit (Homo sapiens, UniProt P10721); experiment: c-kit kinase activity assay (Millipore 14-559); type: biochemical; details: 10 μM compound
T2 construct: purchased Millipore 14-559
Experimental: as §2

Sequence of CK2α (P68400 whole entry): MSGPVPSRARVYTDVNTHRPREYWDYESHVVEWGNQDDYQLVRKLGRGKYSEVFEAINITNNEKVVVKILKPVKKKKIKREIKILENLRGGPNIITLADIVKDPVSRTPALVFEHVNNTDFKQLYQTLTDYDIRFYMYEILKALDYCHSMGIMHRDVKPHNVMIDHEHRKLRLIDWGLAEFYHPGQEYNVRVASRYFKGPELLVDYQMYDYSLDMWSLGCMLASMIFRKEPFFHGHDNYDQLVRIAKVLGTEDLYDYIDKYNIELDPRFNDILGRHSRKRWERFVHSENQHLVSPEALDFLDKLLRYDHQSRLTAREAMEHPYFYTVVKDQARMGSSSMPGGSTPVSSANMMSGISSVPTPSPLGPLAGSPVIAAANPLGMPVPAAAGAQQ
T2 sequence (P10721 26-976): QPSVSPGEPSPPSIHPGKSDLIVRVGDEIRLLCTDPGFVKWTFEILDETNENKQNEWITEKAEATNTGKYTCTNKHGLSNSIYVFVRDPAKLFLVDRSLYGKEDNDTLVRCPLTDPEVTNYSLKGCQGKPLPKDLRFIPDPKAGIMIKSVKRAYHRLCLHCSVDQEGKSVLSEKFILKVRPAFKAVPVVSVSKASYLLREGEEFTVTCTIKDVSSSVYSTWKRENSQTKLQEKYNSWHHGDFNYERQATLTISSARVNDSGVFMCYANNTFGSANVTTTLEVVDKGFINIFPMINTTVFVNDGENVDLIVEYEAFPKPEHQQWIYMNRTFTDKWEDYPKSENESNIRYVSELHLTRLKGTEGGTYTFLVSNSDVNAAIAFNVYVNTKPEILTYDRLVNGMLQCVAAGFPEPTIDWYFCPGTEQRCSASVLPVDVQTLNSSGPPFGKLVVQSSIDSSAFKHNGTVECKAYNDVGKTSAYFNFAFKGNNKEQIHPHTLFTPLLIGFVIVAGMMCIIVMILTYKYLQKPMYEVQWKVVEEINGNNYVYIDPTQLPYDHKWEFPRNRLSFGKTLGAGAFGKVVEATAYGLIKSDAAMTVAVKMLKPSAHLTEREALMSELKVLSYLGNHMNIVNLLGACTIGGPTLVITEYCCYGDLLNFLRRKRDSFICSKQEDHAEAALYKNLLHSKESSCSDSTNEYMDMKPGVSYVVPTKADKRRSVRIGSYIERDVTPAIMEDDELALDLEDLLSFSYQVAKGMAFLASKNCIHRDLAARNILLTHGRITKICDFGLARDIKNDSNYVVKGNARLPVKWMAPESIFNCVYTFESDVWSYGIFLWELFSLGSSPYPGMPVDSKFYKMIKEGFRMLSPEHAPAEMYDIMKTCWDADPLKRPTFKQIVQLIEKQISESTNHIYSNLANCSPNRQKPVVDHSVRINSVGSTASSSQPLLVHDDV
T1 sequence (P11388 whole entry): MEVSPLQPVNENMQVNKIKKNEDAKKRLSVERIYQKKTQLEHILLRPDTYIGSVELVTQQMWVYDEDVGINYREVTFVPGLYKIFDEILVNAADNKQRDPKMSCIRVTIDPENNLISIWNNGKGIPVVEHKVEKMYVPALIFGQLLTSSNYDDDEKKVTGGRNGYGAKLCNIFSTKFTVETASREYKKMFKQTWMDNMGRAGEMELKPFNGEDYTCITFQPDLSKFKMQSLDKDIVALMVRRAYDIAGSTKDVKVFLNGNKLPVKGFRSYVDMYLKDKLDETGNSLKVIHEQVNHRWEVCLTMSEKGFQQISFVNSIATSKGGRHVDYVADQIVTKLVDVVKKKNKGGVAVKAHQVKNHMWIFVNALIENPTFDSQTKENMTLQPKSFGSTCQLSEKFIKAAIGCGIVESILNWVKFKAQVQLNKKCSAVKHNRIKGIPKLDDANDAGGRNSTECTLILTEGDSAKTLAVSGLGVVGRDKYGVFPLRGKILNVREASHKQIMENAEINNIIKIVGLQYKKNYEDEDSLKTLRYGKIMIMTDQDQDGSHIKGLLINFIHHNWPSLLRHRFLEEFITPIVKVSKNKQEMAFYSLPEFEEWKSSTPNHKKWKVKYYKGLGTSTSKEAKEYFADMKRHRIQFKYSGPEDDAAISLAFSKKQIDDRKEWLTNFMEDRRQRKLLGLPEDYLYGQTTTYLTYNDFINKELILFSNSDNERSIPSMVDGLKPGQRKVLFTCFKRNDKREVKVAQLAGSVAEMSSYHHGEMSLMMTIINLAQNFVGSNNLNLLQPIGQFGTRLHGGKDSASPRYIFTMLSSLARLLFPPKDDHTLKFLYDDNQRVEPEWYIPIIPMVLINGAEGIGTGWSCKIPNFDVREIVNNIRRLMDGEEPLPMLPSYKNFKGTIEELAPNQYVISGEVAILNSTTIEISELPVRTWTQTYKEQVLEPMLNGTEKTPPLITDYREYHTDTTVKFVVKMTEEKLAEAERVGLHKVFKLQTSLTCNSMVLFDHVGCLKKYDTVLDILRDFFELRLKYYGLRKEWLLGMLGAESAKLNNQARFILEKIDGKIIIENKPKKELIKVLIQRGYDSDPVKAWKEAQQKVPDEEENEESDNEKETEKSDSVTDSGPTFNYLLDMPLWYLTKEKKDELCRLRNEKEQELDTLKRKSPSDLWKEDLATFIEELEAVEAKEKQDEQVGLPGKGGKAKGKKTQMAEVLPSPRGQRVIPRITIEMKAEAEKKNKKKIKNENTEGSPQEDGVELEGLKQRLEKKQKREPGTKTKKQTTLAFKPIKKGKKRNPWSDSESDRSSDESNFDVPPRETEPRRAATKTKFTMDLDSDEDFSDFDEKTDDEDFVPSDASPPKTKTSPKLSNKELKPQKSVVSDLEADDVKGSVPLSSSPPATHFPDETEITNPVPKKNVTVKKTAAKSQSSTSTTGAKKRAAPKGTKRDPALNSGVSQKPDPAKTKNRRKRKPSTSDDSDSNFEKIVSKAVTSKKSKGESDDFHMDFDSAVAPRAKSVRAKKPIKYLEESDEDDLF

SMILES	inhibition at 5 µM (U373 cells [1]) [%]	tumor size, times smaller than DMSO group (U373 cells [2]; 15 days post first compound injection, i.p. 0.14 mg/injection) [times]	tolerability (U373 cells [2]; at the doses applied)	variations in body weight (U373 cells [2]; i.p. 0.14 mg/injection, 3 times weekly for 2 weeks)	tumor incidence compared to DMSO (U373 cells [2]; i.p. 0.14 mg/injection, 3 times weekly for 2 weeks, all time points)	reduction of U373 cell proliferation (U373 cells [3])	% DNA intercalation (10 μM) [4] [%]	apoptotic cells (HeLa cells [5])	cell cycle effect (HeLa cells [5])	phosphorylated CK2 reporter isoform (CK2)	% remaining CK2 activity (10 μM) (CK2α) [%]	IC50 (CK2α) [µM]	cell cycle effect (U373 cells [6])	% remaining topoisomerase II activity (10 μM) (topoisomerase IIα) [%]	inhibition of HeLa cell proliferation (HeLa cells [7])	% remaining c-kit activity (10 μM) (c-Kit) [%]
Cc1cnc(Cl)c2c1[nH]c1c3ccc(O)cc3ccc12 [Compound 1]	50	4.7	well tolerated	not statistically significant	significantly reduced	potent to reduce cell proliferation	62.0	concomitant increase of apoptotic cells	cell cycle arrest with a substantial accumulation in G2/M-phase	disappeared in a dose-dependent manner	1.4	1.5	cell cycle arrest with a substantial accumulation in G2/M-phase	106.8	strong inhibition of tumour cell proliferation even at low doses	60.4
Cc1cnc(Cl)c2c1[nH]c1ccc3cc(O)ccc3c12 [Compound 2]						potent to reduce cell proliferation	66.4	concomitant increase of apoptotic cells	cell cycle arrest with a substantial accumulation in G2/M-phase	disappeared in a dose-dependent manner	3.5	0.67	cell cycle arrest with a substantial accumulation in G2/M-phase	77	strong inhibition of tumour cell proliferation even at low doses	16.9
